Drawing on paper PMC4662070 (Nature communications, 2015), this text covers Kd for one compound.

The experiment addresses FABP5 (Homo sapiens, UniProt Q01469). The experiment can be described thus: fluorescence titration. It is filed as binding.

One may read the Kd as the free concentration of one partner at which half of the binding sites on the other are occupied at equilibrium, for simple one-to-one binding. Read a high Kd as weaker binding.

Chain of FABP5 (Q01469 2-135): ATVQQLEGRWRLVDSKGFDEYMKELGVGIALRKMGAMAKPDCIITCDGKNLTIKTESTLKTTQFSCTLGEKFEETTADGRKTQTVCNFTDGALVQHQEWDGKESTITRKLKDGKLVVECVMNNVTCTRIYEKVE

Compound `O=S(=O)(O)c1cccc2cccc(Nc3ccccc3)c12` [ANS, 1-anilinonaphthalene-8-sulfonic acid] gave a Kd of 70 ± 6.4 nM.
